Measured values: patent US20190105367A1, “ANTIMICROBIAL 4-OXOQUINOLIZINES” (Emergent Product Development Gaithersburg Inc., priority 2011, published 2019)

Assays:
A. baumannii A489 [1] = test: MIC without and with sub-inhibitory polymyxin B (Example 4); type: cell-based, Acinetobacter baumannii; details: A. baumannii A489
[2] = tested on: Acinetobacter sp. (H064200250); test: as above; type: cell-based
A. baumannii A390 [3] = test: as above; type: cell-based, Acinetobacter baumannii; details: A. baumannii A390
A. baumannii A387 = test: as above; type: cell-based, Acinetobacter baumannii; details: A. baumannii A387
A. baumannii A473 [4] = test: as above; type: cell-based, Acinetobacter baumannii; details: A. baumannii A473
A. baumannii ATCC 19606 [5] = test: Preliminary MBC without and with sub-inhibitory polymyxin B (Example 4); type: cell-based, Acinetobacter baumannii; details: for MBC: 2nd experiment
A. baumannii J2 [6] = test: MIC without and with sub-inhibitory polymyxin B (Example 4); type: cell-based, Acinetobacter baumannii; details: A. baumannii J2
A. baumannii A329 [7] = test: as above; type: cell-based, Acinetobacter baumannii; details: A. baumannii A329
A. baumannii ATCC 19606 [8] = test: as above; type: cell-based, Acinetobacter baumannii; details: A. baumannii ATCC 19606
A. baumannii NCTC 13301 [9] = test: Preliminary MBC without and with sub-inhibitory polymyxin B (Example 4); type: cell-based, Acinetobacter baumannii; details: A. baumannii NCTC 13301, preliminary MBC; for MBC: 2nd experiment
In short: (§1)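 Incubation 18-20 h, 37° C. MBC = lowest conc. with ~90% fewer colonies than positive control (single/no colonies).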

A. baumannii A14 [10] = test: as above; type: cell-based, Acinetobacter baumannii; details: 2nd experiment
In short: as §1

A. baumannii A473 [11] = test: as above; type: cell-based, Acinetobacter baumannii; details: for MBC: 2nd experiment
In short: as §1

A. baumannii A390 [12] = test: as above; type: cell-based, Acinetobacter baumannii; details: for MBC: 2nd experiment
In short: as §1

[13] = tested on: Acinetobacter sp. (H064200250); test: as above; type: cell-based; details: preliminary MBC; for MBC: Acinetobacter spp. H064200250 (OXA51), 2nd experiment
In short: as §1

A. baumannii A329 [14] = test: as above; type: cell-based, Acinetobacter baumannii; details: for MBC: 2nd experiment
A. baumannii A472 = test: as above; type: cell-based, Acinetobacter baumannii; details: A. baumannii A472, preliminary MBC; for MBC: 2nd experiment
A. baumannii NCTC 13301 [15] = test: MIC without and with sub-inhibitory polymyxin B (Example 4); type: cell-based, Acinetobacter baumannii; details: A. baumannii NCTC 13301, 1st experiment
A. baumannii J2 [16] = test: Preliminary MBC without and with sub-inhibitory polymyxin B (Example 4); type: cell-based, Acinetobacter baumannii; details: A. baumannii J2, preliminary MBC; for MBC: 2nd experiment
A. baumannii A14 [17] = test: as above; type: cell-based, Acinetobacter baumannii; details: A. baumannii A14, preliminary MBC, 1st experiment
A. baumannii A14 [18] = test: MIC without and with sub-inhibitory polymyxin B (Example 4); type: cell-based, Acinetobacter baumannii; details: A. baumannii A14, 2nd experiment
A. baumannii A14 [19] = test: as above; type: cell-based, Acinetobacter baumannii; details: 1st experiment
A. baumannii A489 [20] = test: Preliminary MBC without and with sub-inhibitory polymyxin B (Example 4); type: cell-based, Acinetobacter baumannii; details: A. baumannii A489, preliminary MBC; for MBC: 2nd experiment
A. baumannii NCTC 13301 [21] = test: MIC without and with sub-inhibitory polymyxin B (Example 4); type: cell-based, Acinetobacter baumannii; details: A. baumannii NCTC 13301, 2nd experiment
[22] = +[…] polymyxin B, 1st experiment
[23] = without polymyxin B, 1st experiment
[24] = Acinetobacter spp. H064200250 (OXA51), +[…] PB, 2nd experiment
[25] = Acinetobacter spp. H064200250, +[…] polymyxin B, 1st experiment
[26] = Acinetobacter spp. H064200250, without polymyxin B, 1st experiment
[27] = +0.06 μg/ml polymyxin B, 1st experiment
[28] = ratio, PB 0.06 μg/ml, 1st experiment

## Polymyxin B [reference compound]
A. baumannii A489 [1]; +[…] PB, 2nd experiment
  MIC: 0.25 µg/mL
  MIC without PB/MIC + PB: 2
A. baumannii A489 [1]; [22]
  MIC +[…] PB: 1 µg/mL
A. baumannii A489 [1]; ratio, PB […], 1st experiment
  MIC without PB/MIC + PB: 2
A. baumannii A489 [1]; without PB, 2nd experiment
  MIC: 0.5 µg/mL
A. baumannii A489 [1]; [23]
  MIC without PB: 2 µg/mL
[2]; [24]
  MIC: 0.25 µg/mL
  MIC without PB/MIC + PB: 1
[2]; Acinetobacter spp. H064200250 (OXA51), without PB, 2nd experiment
  MIC: 0.25 µg/mL
[2]; [25]
  MIC +[…] PB: 0.25 µg/mL
[2]; Acinetobacter spp. H064200250, ratio, PB […], 1st experiment
  MIC without PB/MIC + PB: 2
[2]; [26]
  MIC without PB: 0.5 µg/mL
A. baumannii A390 [3]; +0.06 μg/ml PB, 2nd experiment
  MIC: ≤0.125 µg/mL
  MIC without PB/MIC + PB: ≥2
A. baumannii A390 [3]; without PB, 2nd experiment
  MIC: 0.25 µg/mL
A. baumannii A390 [3]; [23]
  MIC without PB: 0.25 µg/mL
A. baumannii A387; +0.06 μg/ml PB, 2nd experiment
  MIC: ≤ 0.125 µg/mL
  MIC without PB/MIC + PB: ≥2
A. baumannii A387; +0.06 μg/ml PB, value in parentheses, 2nd experiment
  MIC read with alamar blue: 0.25 µg/mL
A. baumannii A387; [27]
  MIC +0.06 μg/ml PB: 0.25 µg/mL
A. baumannii A387; [28]
  MIC without PB/MIC + PB: 1
A. baumannii A387; without PB, 2nd experiment
  MIC: 0.25 µg/mL
A. baumannii A387; [23]
  MIC without PB: 0.25 µg/mL
A. baumannii A473 [4]; +0.06 μg/ml PB, 2nd experiment
  MIC: 0.25 µg/mL
  MIC without PB/MIC + PB: 1
A. baumannii A473 [4]; without PB, 2nd experiment
  MIC: 0.25 µg/mL
A. baumannii A473 [4]; without PB, value in parentheses, 2nd experiment
  MIC read with alamar blue: 2 µg/mL
A. baumannii A473 [4]; [23]
  MIC without PB: 1 µg/mL
A. baumannii ATCC 19606 [5]; A. baumannii ATCC 19606, +0.06 μg/ml PB
  MBC: 0.25 µg/mL
A. baumannii ATCC 19606 [5]; A. baumannii ATCC 19606, +0.06 μg/ml polymyxin B, 1st experiment
  MBC +0.06 μg/ml PB: 0.5 µg/mL
A. baumannii ATCC 19606 [5]; A. baumannii ATCC 19606, without PB
  MBC: 0.5 µg/mL
A. baumannii ATCC 19606 [5]; A. baumannii ATCC 19606, without polymyxin B, 1st experiment
  MBC without PB: 0.5 µg/mL
A. baumannii J2 [6]; +[…] PB, 2nd experiment
  MIC: ≤0.125 µg/mL
  MIC without PB/MIC + PB: ≥4
A. baumannii J2 [6]; [22]
  MIC +[…] PB: 0.5 µg/mL
A. baumannii J2 [6]; ratio, PB […], 1st experiment
  MIC without PB/MIC + PB: 1
A. baumannii J2 [6]; without PB, 2nd experiment
  MIC: 0.5 µg/mL
A. baumannii J2 [6]; [23]
  MIC without PB: 0.5 µg/mL
A. baumannii A329 [7]; +0.06 μg/ml PB, 2nd experiment
  MIC: 0.25 µg/mL
  MIC without PB/MIC + PB: 1
A. baumannii A329 [7]; without PB, 2nd experiment
  MIC: 0.25 µg/mL
A. baumannii A329 [7]; [23]
  MIC without PB: 0.5 µg/mL
A. baumannii ATCC 19606 [8]; +0.06 μg/ml PB, 2nd experiment
  MIC: 0.25 µg/mL
  MIC without PB/MIC + PB: 2
A. baumannii ATCC 19606 [8]; [27]
  MIC +0.06 μg/ml PB: 0.5 µg/mL
A. baumannii ATCC 19606 [8]; [28]
  MIC without PB/MIC + PB: 1
A. baumannii ATCC 19606 [8]; without PB, 2nd experiment
  MIC: 0.5 µg/mL
A. baumannii ATCC 19606 [8]; [23]
  MIC without PB: 0.5 µg/mL
A. baumannii NCTC 13301 [9]; +[…] PB
  MBC: ≤0.125 µg/mL
A. baumannii NCTC 13301 [9]; [22]
  MBC +[…] PB: 0.5 µg/mL
A. baumannii NCTC 13301 [9]; without PB
  MBC: 0.25 µg/mL
A. baumannii NCTC 13301 [9]; [23]
  MBC without PB: 0.5 µg/mL
A. baumannii A14 [10]; A. baumannii A14, +0.06 μg/ml PB
  MBC: 0.25 µg/mL
A. baumannii A14 [10]; A. baumannii A14, without PB
  MBC: 0.25 µg/mL
A. baumannii A473 [11]; A. baumannii A473, +0.06 μg/ml PB
  MBC: 0.25 µg/mL
A. baumannii A473 [11]; A. baumannii A473, without PB
  MBC: 0.25 µg/mL
A. baumannii A473 [11]; A. baumannii A473, without polymyxin B, 1st experiment
  MBC without PB: 1 µg/mL
A. baumannii A390 [12]; A. baumannii A390, +0.06 μg/ml PB
  MBC: ≤0.125 µg/mL
A. baumannii A390 [12]; A. baumannii A390, without PB
  MBC: 0.25 µg/mL
A. baumannii A390 [12]; A. baumannii A390, without polymyxin B, 1st experiment
  MBC without PB: 0.25 µg/mL
[13]; +[…] PB
  MBC: 0.25 µg/mL
[13]; without PB
  MBC: 0.25 µg/mL
[13]; [25]
  MBC +[…] PB: 0.5 µg/mL
[13]; [26]
  MBC without PB: 0.5 µg/mL
A. baumannii A329 [14]; A. baumannii A329, +0.06 μg/ml PB
  MBC: 0.25 µg/mL
A. baumannii A329 [14]; A. baumannii A329, without PB
  MBC: 0.25 µg/mL
A. baumannii A329 [14]; A. baumannii A329, without polymyxin B, 1st experiment
  MBC without PB: 0.5 µg/mL
A. baumannii A472; +[…] PB
  MBC: 0.25 µg/mL
A. baumannii A472; [22]
  MBC +[…] PB: ≤0.125 µg/mL
A. baumannii A472; without PB
  MBC: 0.5 µg/mL
A. baumannii A472; [23]
  MBC without PB: 0.5 µg/mL
A. baumannii NCTC 13301 [15]; +[…] polymyxin B
  MIC +[…] PB: 1 µg/mL
A. baumannii NCTC 13301 [15]; ratio, PB […]
  MIC without PB/MIC + PB: 0.5
A. baumannii NCTC 13301 [15]; without polymyxin B
  MIC without PB: 0.5 µg/mL
A. baumannii J2 [16]; +[…] PB
  MBC: ≤0.125 µg/mL
A. baumannii J2 [16]; [22]
  MBC +[…] PB: 0.5 µg/mL
A. baumannii J2 [16]; without PB
  MBC: 0.5 µg/mL
A. baumannii J2 [16]; [23]
  MBC without PB: 0.5 µg/mL
A. baumannii A14 [17]; +0.06 μg/ml polymyxin B
  MBC +0.06 μg/ml PB: 0.5 µg/mL
A. baumannii A14 [17]; without polymyxin B
  MBC without PB: 0.5 µg/mL
A. baumannii A14 [18]; +0.06 μg/ml PB
  MIC: 0.25 µg/mL
  MIC without PB/MIC + PB: 1
A. baumannii A14 [18]; without PB
  MIC: 0.25 µg/mL
A. baumannii A14 [19]; +0.06 μg/ml polymyxin B
  MIC +0.06 μg/ml PB: 0.5 µg/mL
A. baumannii A14 [19]; ratio, PB 0.06 μg/ml
  MIC without PB/MIC + PB: 1
A. baumannii A14 [19]; without polymyxin B
  MIC without PB: 0.5 µg/mL
A. baumannii A489 [20]; +[…] PB
  MBC: 0.25 µg/mL
A. baumannii A489 [20]; [22]
  MBC +[…] PB: 1 µg/mL
A. baumannii A489 [20]; without PB
  MBC: 0.5 µg/mL
A. baumannii A489 [20]; [23]
  MBC without PB: 2 µg/mL
A. baumannii NCTC 13301 [21]; +[…] PB
  MIC: ≤ 0.125 µg/mL
  MIC without PB/MIC + PB: ≥2
A. baumannii NCTC 13301 [21]; +[…] PB, value in parentheses marked *, mark not explained
  MIC: 0.25 µg/mL
A. baumannii NCTC 13301 [21]; without PB
  MIC: 0.25 µg/mL
